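Test compounds were applied to cells in 96-well plates for 48 hours at 5 doses. At the TGI there is no net growth.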
Tests used:
Test in all cases: growth of human tumour cells (NCI), 48 h
HOP-92 NSCLC = tested on: HOP-92 NSCLC
SK-MEL-5 melanoma = tested on: SK-MEL-5 melanoma
DU-145 prostate = tested on: DU-145 prostate
U251 CNS = tested on: U251 CNS
SF-268 CNS = tested on: SF-268 CNS
HOP-62 NSCLC = tested on: HOP-62 NSCLC
MALME-3M melanoma = tested on: MALME-3M melanoma
UACC-62 melanoma = tested on: UACC-62 melanoma
EKVX NSCLC = tested on: EKVX NSCLC
A498 renal = tested on: A498 renal
NCI-H522 lung = tested on: NCI-H522 lung
LOX IMVI melanoma = tested on: LOX IMVI melanoma
SK-MEL-2 melanoma = tested on: SK-MEL-2 melanoma
HCC-2998 colon = tested on: HCC-2998 colon
A549 NSCLC = tested on: A549 NSCLC
SW-620 colon = tested on: SW-620 colon
COLO 205 colon = tested on: COLO 205 colon
OVCAR-3 ovarian = tested on: OVCAR-3 ovarian
UO-31 renal = tested on: UO-31 renal
IGROV1 ovarian = tested on: IGROV1 ovarian

SMILES	TGI (HOP-92 NSCLC)	TGI (SK-MEL-5 melanoma)	TGI (DU-145 prostate)	TGI (U251 CNS)	TGI (SF-268 CNS)	TGI (HOP-62 NSCLC)	TGI (MALME-3M melanoma)	TGI (UACC-62 melanoma)	TGI (EKVX NSCLC)	TGI (A498 renal)	TGI (NCI-H522 lung)	TGI (LOX IMVI melanoma)	TGI (SK-MEL-2 melanoma)	TGI (HCC-2998 colon)	TGI (A549 NSCLC)	TGI (SW-620 colon)	TGI (COLO 205 colon)	TGI (OVCAR-3 ovarian)	TGI (UO-31 renal)	TGI (IGROV1 ovarian)
N=c1sc2ccccc2n1CCS (tested in a mixture with another compound)	38.4 µM	28 µM	46 µM	29.1 µM	49.1 µM	39.8 µM	37.6 µM	26.9 µM	62.3 µM	33.2 µM	45.4 µM	30.5 µM	45.5 µM	30.8 µM	37.3 µM	> 100 µM	27.5 µM	40.9 µM	25.8 µM	27.5 µM
COC(=O)NC(=O)NC(Cc1ccccc1)NC(=O)OCc1ccccc1 (stereo not given)	42.5 µM	> 100 µM	> 100 µM	> 100 µM	> 100 µM	> 100 µM	> 100 µM	> 100 µM	> 100 µM	91.5 µM	> 100 µM	> 100 µM	> 100 µM	> 100 µM	> 100 µM	> 100 µM	> 100 µM	> 100 µM	> 100 µM	> 100 µM
COc1cc2nc3n(c2cc1OC)C(O)c1c(Cl)nc(SC)nc1S3 (stereo not given)	68.3 µM	8.94 µM	24.1 µM	26.3 µM	> 100 µM	26.1 µM	8.8 µM	25.2 µM	40.6 µM	34.9 µM	4.36 µM	5.07 µM	> 27.2 µM	20.2 µM	48 µM	22.8 µM	22.9 µM	13.3 µM	13.2 µM	13 µM
CC(C)(C)N(Cc1ccccc1)C(=O)/C=C\S(=O)c1ccccc1 (stereo not given)	10.8 µM	15.9 µM	13.6 µM	15.5 µM	6.96 µM	21.2 µM	12.2 µM	15.2 µM	24.1 µM	26.5 µM	2.7 µM	5.7 µM	8.79 µM	15.5 µM	25.4 µM	9.13 µM	12.8 µM	7.41 µM	7.71 µM	17.8 µM
COc1cccc(OC)c1C1ON=C(c2ccccc2)N1C12CC3CC(CC(C3)C1)C2 (stereo not given)	88.4 µM	> 100 µM	> 100 µM	> 100 µM	> 100 µM	> 100 µM	> 100 µM	> 100 µM	> 100 µM	> 100 µM	> 100 µM	> 100 µM	> 100 µM	> 100 µM	> 100 µM	> 100 µM	> 100 µM	> 100 µM	> 100 µM	> 100 µM
C=CC(=O)NCCC(=O)OCn1cc(F)c(=O)[nH]c1=O	> 100 µM	> 100 µM	> 100 µM	> 100 µM	> 100 µM	> 100 µM	> 100 µM	> 100 µM	> 100 µM	> 100 µM	> 100 µM	> 100 µM	> 100 µM	> 100 µM	> 100 µM	> 100 µM	> 100 µM	> 100 µM	> 100 µM	> 100 µM
